Data on 2 molecules can be found in PMC3206020, “Analogous Mechanisms of Resistance to Benzothiazinones and Dinitrobenzamides in Mycobacterium smegmatis” (PLoS ONE, 2011).

Molecules are shown by their SMILES.

One assay deals with T1, NfnB (Mycolicibacterium smegmatis, UniProt A0R6D0).
T1 construct: purified NfnB protein
The experiment in a line: LC/MS/MS detection of conversion of DNB1 to its hydroxylamine by purified NfnB. Type of assay: biochemical.

The next assay concerns the target T2, DprE1 (MSMEG_6382) (Mycolicibacterium smegmatis, UniProt A0R607).
T2 construct: recombinant DprE1 expressed as N-terminal six-histidine and thioredoxin fusion (pET-32b), digested with PreScission Protease
The experiment in a line: steady-state fluorescence titration (enzyme-bound FAD fluorescence). Type of assay: binding.

The Kd is the concentration at which binding is half-saturated. A higher Kd goes with a looser complex.

`COc1ccc(OCCNC(=O)c2cc([N+](=O)[O-])cc([N+](=O)[O-])c2)cc1` [DNB1, N-(2-(4-methoxyphenoxy)ethyl)-3,5-dinitrobenzamide]: at NfnB, the “LC/MS/MS detection of conversion of DNB1 to its hydroxylamine by purified NfnB” value is “NfnB was able to convert DNB1 into the corresponding hydroxyl amine-derivative in the presence of NADPH”. The molecule also registered a Kd on DprE1 (MSMEG_6382) of 7.3 ± 0.8 µM.
`O=C(NCCOCc1cccc(Cl)c1)c1cc([N+](=O)[O-])cc([N+](=O)[O-])c1` [DNB3, N-(2-(3-chlorobenzyloxy)ethyl)-3,5-dinitrobenzamide] registered an equilibrium dissociation constant (Kd) on DprE1 (MSMEG_6382) of 1.8 ± 0.1 µM.
